The values that follow are results of earlier work, collected in US20080138440A1, “Methods of diagnosing and alleviating gadolinium toxicity” (priority 2006, published 2008).

For the series the following is noted: high doses; cited from earlier work.

The structures appear in SMILES notation.

Consider `CNC[C@H](O)[C@@H](O)[C@H](O)[C@H](O)CO.CNC[C@H](O)[C@@H](O)[C@H](O)[C@H](O)CO.O=C([O-])CN(CCN(CC(=O)[O-])CC(=O)O)CCN(CC(=O)[O-])CC(=O)O.[Gd+3]` [gadopentetate dimeglumine injection, gadopentetate dimeglumine], for which the arrhythmias result was “Arrhythmias have been noted”.
